Tests used:
[1] = biological target: T1, SARS-CoV-2 M^pro (Severe acute respiratory syndrome coronavirus 2, UniProt P0DTD1); type: biochemical; conditions: 0.2 µM M^pro, 2 h incubation at r.t., 4 µM substrate, Hill equation fit; read-out: Inhibition constants, Ki
[2] = biological target: T1, SARS-CoV-2 M^pro; test: ESI MS of metallodrug-protein adduct formation; type: binding; conditions: protein-to-metal ratio 1:3 (1:1 for Au(PEt3)Br), 37 °C, 4 h incubation (up to 24 h)

Row | SMILES | Ki [1] [µM] | protein metalation / adduct formation (ESI MS) [2]
1 | CCCC[n+]1ccn(C)[c]1[Au-][Cl] [Au(NHC)Cl] | 0.87 ± 0.04 | formation of a mono adduct
2 | CC[P](CC)(CC)[Au][Br] [Au(PEt3)Br] | 0.44 ± 0.022 | –
3 | CCP(CC)CC.[Au+].[Cl-] [Au(PEt3)Cl] | 0.66 ± 0.026 | –
4 | CC[P](CC)(CC)[Au][I] [Au(PEt3)I] | 2.12 ± 0.096 | –

Source: paper PMC9687241 (Biomolecules, 2022)
